Data from patent US5723491A, “Fungicidal composition and method of controlling fungus infestation” (Novartis Corporation, priority 1994, dated 1998).
Where “and” joins values, the source holds several entries; their conditions need not be identical. Identical values can stand only once. Like-named read-outs stand apart in the source and are kept apart here.

Key:
[1] = cited from earlier work
[2] = Degradation behaviour in moderately heavy soil (silt/loam) under laboratory conditions
Method: Degradation Behaviour of Racemic Metalaxyl and R-metalaxyl in Moderately Heavy Soil
Two groups of 8 samples each of biologically active soil (silt/loam; loam: 13.9%; silt: 54.3%; sand: 31.8%; organic carbon: 2.1%; pH 7.3; biomass: 65.1 mg microbial carbon per 100 g soil; origin: Les Evouettes, Valais, Switzerland) are treated in parallel with racemic metalaxyl or R-metalaxyl, respectively, in each case in acetonic solution. The rate of application is 0.5 mg/kg of soil sample, which corresponds to a rate of application of 0.5 kg/hectare. The results are evaluated in duplicate after 0, 7, 14 and 21 days.

[3] = test system: metalaxyl-sensitive strain of Plasmopara viticola; assay: Foliar spray on vine plantlets infected with Plasmopara viticola (two-leaf and three-leaf stage sprayings); format: in vivo
Method: Vine plantlets cv. "Gutedel" are grown under greenhouse conditions using one plant per pot (.O slashed.=6 cm) and sprayed with a spray broth prepared from an emulsion concentrate, either in the two-leaf stage or in the three-leaf stage. The following concentrations of active ingredient are used per batch of 4 plants: 200; 60; 20; 6; 2; 0.6; 0.2; 0.06 mg of a.i./liter. This dilution series is prepared in demineralized water immediately prior to application as a foliar spray. To exclude a gas-phase effect of the a.i. in the vicinity, all plants are separated from each other on the side using translucent plastic foils and kept in the dark for one day at 20°-22° C. and a relative humidity of approximately 100%.
Then, the entire leaf surface area of the plants is uniformly sprayed to drip point with a freshly prepared sporangia suspension (120 000/ml) of a metalaxyl-sensitive strain of Plasmopara viticola. The plants are then kept for 7 days under a 16 hour photoperiod with artificial daylight at 20°-22° C. and a relative humidity of approximately 100%. This is followed by evaluation of the infestation, separating three-leaf and two-leaf stage sprayings. The tables show in each case the average of 4 parallel sprayings.

[4] = Degradation behaviour in sandy soil under laboratory conditions; parameters: degradation equation Ct, rate constant in exponent: unit: 1/day; conditions: sand
Method: Degradation Behaviour of Racemic Metalaxyl and R-metalaxyl in Sandy Soil
Two groups of 16 samples each of biologically active soil (sandy soil; loam: 5.1%; silt: 11.4%; sand: 83.5%; organic carbon: 1.6%; pH 4; biomass: 51 mg microbial carbon/100 g soil; origin: Collombey, Valais, Switzerland)are treated in parallel with racemic metalaxyl or R-metalaxyl, respectively, in each case in acetonic solution. The rate of application is 0.5 mg/kg of soil sample, which corresponds to a rate of application of 0.5 kg/hectare. The results are evaluated in duplicate after 0, 1, 3, 7, 9, 15, 21 and 29 days.

[5] = day 7, mean of duplicate, 10080 min
[6] = day 7, single sample, 10080 min
[7] = day 21, mean of duplicate, 30240 min
[8] = day 21, single sample, 30240 min

## COC(=O)C(C)N(C(=O)c1ccco1)c1c(C)cccc1C (racemic) [Furalaxyl, N-(2,6-dimethylphenyl)-N-(2-furanylcarbonyl)-DL-alanine methyl ester]
[1]; 20° C., pH1
  DT-50 (hydrolytic half-life): > 200 days
[1]; 20° C., pH9
  DT-50 (hydrolytic half-life): > 200 days

## COC(=O)C(C)N(C(=O)Cc1ccccc1)c1c(C)cccc1C (racemic) [Benalaxyl, N-(2,6-dimethylphenyl)-N-(phenylacetyl)-DL-alanine methyl ester]
[1]; pH9.25
  DT-50 (hydrolytic half-life): 86 days

## COCC(=O)N(c1c(C)cccc1C)[C@H](C)C(=O)OC [R-metalaxyl]
[2]; day 0, mean of duplicate
  Compound remaining in soil (% of applied): 96.28 % of applied
[2]; day 0, single sample
  Compound remaining in soil (% of applied): 93.61 % of applied and 98.94 % of applied
[2]; [5]
  Compound remaining in soil (% of applied): 25.23 % of applied
[2]; [6]
  Compound remaining in soil (% of applied): 24.74 % of applied and 25.7 % of applied
[2]; day 14, mean of duplicate, 20160 min
  Compound remaining in soil (% of applied): 9.85 % of applied
[2]; day 14, single sample, 20160 min
  Compound remaining in soil (% of applied): 9.07 % of applied and 10.62 % of applied
[2]; [7]
  Compound remaining in soil (% of applied): 7.69 % of applied
[2]; [8]
  Compound remaining in soil (% of applied): 7.57 % of applied and 7.82 % of applied
[2]; first-order fit
  degradation equation Ct, pre-exponential factor: 95.9
[2]; from degradation curve FIG. 1
  DT-50 (50% degradation): 3.9 days
  DT-90 (90% degradation): 13.0 days
[3]; three-leaf stage, 0.06 mg of a.i./liter, untreated control 92
  Foliar infestation: 93%
[3]; three-leaf stage, 0.2 mg of a.i./liter, untreated control 92
  Foliar infestation: 78%
[3]; three-leaf stage, 0.6 mg of a.i./liter, untreated control 92
  Foliar infestation: 0%
[3]; three-leaf stage, 2 mg of a.i./liter, untreated control 92
  Foliar infestation: 0%
[3]; three-leaf stage, 6 mg of a.i./liter, untreated control 92
  Foliar infestation: 0%
[3]; three-leaf stage, 20 mg of a.i./liter, untreated control 92
  Foliar infestation: 0%
[3]; three-leaf stage, 60 mg of a.i./liter, untreated control 92
  Foliar infestation: 0%
[3]; three-leaf stage, 200 mg of a.i./liter, untreated control 92
  Foliar infestation: 0%
[3]; three-leaf stage, up to 0.6 mg of a.i./liter
  activity relative to racemic metalaxyl: approximately 100 times
[3]; two-leaf stage, 0.06 mg of a.i./liter, untreated control 96
  Foliar infestation: 92%
[3]; two-leaf stage, 0.2 mg of a.i./liter, untreated control 96
  Foliar infestation: 97%
[3]; two-leaf stage, 0.6 mg of a.i./liter, untreated control 96
  Foliar infestation: 78%
[3]; two-leaf stage, 2 mg of a.i./liter, untreated control 96
  Foliar infestation: 4%
[3]; two-leaf stage, 6 mg of a.i./liter, untreated control 96
  Foliar infestation: 0%
[3]; two-leaf stage, 20 mg of a.i./liter, untreated control 96
  Foliar infestation: 0%
[3]; two-leaf stage, 60 mg of a.i./liter, untreated control 96
  Foliar infestation: 0%
[3]; two-leaf stage, 200 mg of a.i./liter, untreated control 96
  Foliar infestation: 0%
[3]; two-leaf stage, up to dilutions of 2 mg of a.i./liter
  activity relative to racemic metalaxyl: up to 30 times
[4]; day 0, mean of duplicate
  Rate of degradation (% of applied), mean: 100.02 % of applied
[4]; day 0, single sample
  Rate of degradation (% of applied): 100.32 % of applied and 99.72 % of applied
[4]; day 1, mean of duplicate, 1440 min
  Rate of degradation (% of applied), mean: 89.64 % of applied
[4]; day 1, single sample, 1440 min
  Rate of degradation (% of applied): 89.16 % of applied and 90.13 % of applied
[4]; day 3, mean of duplicate, 4320 min
  Rate of degradation (% of applied), mean: 75.48 % of applied
[4]; day 3, single sample, 4320 min
  Rate of degradation (% of applied): 76.96 % of applied and 74.01 % of applied
[4]; [5]
  Rate of degradation (% of applied), mean: 52.59 % of applied
[4]; [6]
  Rate of degradation (% of applied): 52.59 % of applied
[4]; day 9, mean of duplicate, 12960 min
  Rate of degradation (% of applied), mean: 46.84 % of applied
[4]; day 9, single sample, 12960 min
  Rate of degradation (% of applied): 47.22 % of applied and 46.45 % of applied
[4]; day 15, mean of duplicate, 21600 min
  Rate of degradation (% of applied), mean: 27.33 % of applied
[4]; day 15, single sample, 21600 min
  Rate of degradation (% of applied): 24.77 % of applied and 29.89 % of applied
[4]; [7]
  Rate of degradation (% of applied), mean: 17.09 % of applied
[4]; [8]
  Rate of degradation (% of applied): 17.12 % of applied and 17.05 % of applied
[4]; day 29, mean of duplicate, 41760 min
  Rate of degradation (% of applied), mean: 8.72 % of applied
[4]; day 29, single sample, 41760 min
  Rate of degradation (% of applied): 8.82 % of applied and 8.62 % of applied
[4]; first-order fit
  degradation equation Ct, pre-exponential factor: 98.54
[4]; first-order fit, e^(-k*t)
  degradation equation Ct, rate constant in exponent: 0.08548
[4]; from degradation curve FIG. 2
  DT-50 (50% degradation): 8.1 days
  DT-90 (90% degradation): 26.9 days
